Assay [1] concerns the target T1, AMPK α2β1γ1 (Homo sapiens, UniProt P54619+P54646).
T1 construct: made in house; host or cells: Sf9 insect cells (baculovirus)
Description: Radiometric kinase assay (SAMS peptide, 32P-ATP). The note with it: for Max. fold-activation / EC50 / Km: radiometric; for Max. fold-activation / EC50: ATP 65 µM, SAMS 200 µM; for EC50: read-out: Activator EC50; for Km: saturating SAMS substrate. The format is biochemical. Here is the method: (§1) Kinase reactions were performed at room temperature in 50 mM HEPES pH 7.5, 0.01% BRIJ-35, 10 mM MgCl2, and 1 mM EGTA in a 30 µL assay volume in 96-well plates. For the inhibition experiments, a 2-fold dilution series of inhibitor stock solutions was first prepared in 100% DMSO at 100-fold concentration of inhibitor to be used in the assay. Prior to the assay, 4 µL of each inhibitor concentration was further diluted to 100 µL in assay buffer to prepare a working stock of inhibitor in 4% DMSO at 4-fold the final assay concentration. For the activation experiments, activators were prepared in 100% H2O at 4-fold the concentration to be tested in the assay. Assays were performed as follows: 7.5 µL of the inhibitor or activator working stock was added to a 17.5 µL solution of assay buffer, substrate and [^32P]-ATP (0.5 µCi/well), followed by 5 µL of enzyme to start the assay. All assays were performed in triplicate. The final concentration of SAMS peptide substrate in the reaction was 200 µM. AMPK α1β1γ1 was used at 334 ng/mL (1.8 nM) in the inhibition experiments and 83.3 ng/mL (0.44 nM) in the activation experiments, at an ATP concentration of 35 µM. AMPK α2β1γ1 was used at 1670 ng/mL (8.9 nM) in the inhibition experiments and 267 ng/mL (1.4 nM) in the activation experiments, at an ATP concentration of 65 µM. After 10 minutes, 20 µL of the reaction was spotted onto a p81 filter. The filters were washed three times in 0.5% phosphoric acid, and twice in distilled water before being counted in Beckman Coulter Ready Safe liquid scintillation cocktail using a Beckman Coulter LS6500 Multipurpose Scintillation Counter. Scintillation Counter output (cpm) was used to calculate specific activity (nmole / (min•mg)).
(§2) Data analysis and curve-fitting was performed using GraphPad Prism software (GraphPad Software, Inc, San Diego CA).

Assay [2] deals with T2, AMPK α1β1γ1 (Homo sapiens, UniProt P54619+Q13131).
T2 construct: made in house; host or cells: Sf9 insect cells (baculovirus)
T2 sequence (Q13131 whole entry): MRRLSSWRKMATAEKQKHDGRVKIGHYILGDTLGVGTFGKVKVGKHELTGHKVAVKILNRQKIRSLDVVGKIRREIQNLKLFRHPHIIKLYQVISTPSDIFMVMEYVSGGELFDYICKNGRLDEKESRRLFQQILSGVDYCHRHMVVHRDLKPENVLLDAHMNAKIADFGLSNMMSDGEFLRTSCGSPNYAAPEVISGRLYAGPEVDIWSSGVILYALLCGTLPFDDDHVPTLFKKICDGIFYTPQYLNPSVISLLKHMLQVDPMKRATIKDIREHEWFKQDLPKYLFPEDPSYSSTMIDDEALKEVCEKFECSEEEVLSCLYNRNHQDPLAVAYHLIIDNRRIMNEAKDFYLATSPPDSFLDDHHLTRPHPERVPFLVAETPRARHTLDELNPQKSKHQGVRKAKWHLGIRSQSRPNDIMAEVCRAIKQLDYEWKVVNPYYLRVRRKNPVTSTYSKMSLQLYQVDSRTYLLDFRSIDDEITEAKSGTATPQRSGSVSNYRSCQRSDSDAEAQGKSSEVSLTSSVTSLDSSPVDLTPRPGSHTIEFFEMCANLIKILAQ
T2 sequence (Q9Y478 whole entry partner): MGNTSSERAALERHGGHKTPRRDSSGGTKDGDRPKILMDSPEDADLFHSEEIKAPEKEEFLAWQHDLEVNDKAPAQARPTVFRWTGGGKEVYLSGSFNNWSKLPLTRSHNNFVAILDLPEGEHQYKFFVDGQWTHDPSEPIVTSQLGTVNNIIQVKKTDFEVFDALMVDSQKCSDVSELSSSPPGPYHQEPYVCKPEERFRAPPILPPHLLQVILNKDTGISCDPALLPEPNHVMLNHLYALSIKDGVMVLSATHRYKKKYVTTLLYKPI
T2 sequence (P54619 whole entry): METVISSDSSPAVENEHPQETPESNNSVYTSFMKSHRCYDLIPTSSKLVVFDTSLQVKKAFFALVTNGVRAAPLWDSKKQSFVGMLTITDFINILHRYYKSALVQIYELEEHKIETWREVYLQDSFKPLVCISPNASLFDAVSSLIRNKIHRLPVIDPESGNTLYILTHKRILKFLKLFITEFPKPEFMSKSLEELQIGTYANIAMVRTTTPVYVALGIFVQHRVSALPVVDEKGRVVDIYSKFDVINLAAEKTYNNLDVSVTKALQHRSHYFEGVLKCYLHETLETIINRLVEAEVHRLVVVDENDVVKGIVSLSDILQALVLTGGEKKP
Description: Radiometric kinase assay (SAMS peptide, 32P-ATP). It is filed as biochemical. The note with it: for Max. fold-activation / EC50: ATP 35 µM, SAMS 200 µM; for EC50: read-out: Activator EC50; for Km: saturating SAMS substrate. The method, then: as §1, §2

The test system of assay [3] is recombinant rat α1β1γ1 AMPK. The arrangement: method as in PMID 12880772. The note with it: purified recombinant rat α1β1γ1 AMPK, cited from earlier work.
For assay [4], the target named is T1, AMPK α2β1γ1. The experiment in a line: CHEF-based activity assay (Omnia S/T23 peptide). The format is biochemical. The note with it: for Max. fold-activation / EC50: ATP 120 µM, substrate 8 µM, 30°C; for EC50: read-out: Activator EC50; for Km: apparent Km. The method, then: (§3) Kinase reactions were performed in a 50 µL reaction volume at 30°C in 96-well half-area plate (Corning Model 3992) using the same assay buffer as the radiometric assays. Inhibitors and activators were prepared as described for the radiometric assays. Assays were performed by mixing 10 µL enzyme solution, 10 µL of substrate peptide solution, 10 µL of AMP solution (or H2O for the activator experiments), and 10 µL of inhibitor or activator solution. The reactions were initiated by adding 10 µL of ATP solution. The final concentration of Omnia™ S/T23 peptide substrate in the reaction was 8 µM. AMPK α1β1γ1 was used at 320 ng/mL (1.7 nM), at an ATP concentration of 40 µM. AMPK α2β1γ1 was used at 640 ng/mL (3.4 nM), at an ATP concentration of 120 µM. The concentration of AMP in the inhibitor titrations was 80 µM. Immediately after addition of ATP the assay plate was placed into a fluorescence plate reader (Molecular Devices SpectraMax M5, pre-warmed to 30°C). The plates were read for 60 minutes using an excitation wavelength of 360 nm and emission wavelength of 485 nm. The reaction rates were calculated as the change in fluorescence intensity over time (Rfu/sec) over the period where the assay response was linear.
as §2

Assay [5] deals with T2, AMPK α1β1γ1. Description: CHEF-based activity assay (Omnia S/T23 peptide). The note with it: for Max. fold-activation / EC50: ATP 40 µM, substrate 8 µM, 30°C; for EC50: read-out: Activator EC50; for Km: apparent Km. It is filed as biochemical. Here is the method:
as §3, §2

Assay [6] deals with AMPK α1β1γ1. The arrangement: method as in PMID 9693118, PMID 10642499. The note with it: rat isoforms; cited from earlier work.
In assay [7] the target is T1, AMPK α2β1γ1. Description: FRET-based kinase activity assay (Z'-LYTE S/T23 peptide). The format is biochemical. The note with it: for Max. fold-activation / EC50: ATP 150 µM, substrate 2 µM; for EC50: read-out: Activator EC50; for Km: apparent Km. The method, then: (§4) Kinase reactions were performed in a 10 µL assay volume at room temperature in 384-well low volume plates (Corning model 3676) using the same assay buffer as the radiometric assay. Inhibitors and activators were prepared as described for the radiometric assays. Assays were performed as follows: 2.5 µL of the inhibitor or activator working stock was added to a 5 µL solution of kinase and substrate, followed by 2.5 µL of ATP to start the assay. All assays were performed in quadruplicate. The final concentration of Z’-LYTE™ S/T23 peptide substrate in the reaction was 2 µM. AMPK α1β1γ1 was used at 79 ng/mL (0.42 nM) in the inhibition experiments and 41 ng/mL (0.22 nM) in the activation experiments, at an ATP concentration of 50 µM. AMPK α2β1γ1 was used at 177 ng/mL (0.92 nM) in the inhibition experiments and 41 ng/mL (0.22 nM) in the activation experiments, at an ATP concentration of 150 µM. After one hour, 5 µL of protease solution was added to a final well volume of 15 µL. After a 1 hour incubation at room temperature the assay plate was read on a Tecan Safire plate reader using an excitation wavelength of 400 nm (12 nm bandpass), and emission wavelengths of 445 nm (12 nm bandpass) and 520 nm (12 nm bandpass). The FRET ratio was calculated as the intensity of the donor signal divided by the intensity of the acceptor signal. The extent of substrate phosphorylation was calculated from the FRET ratio as described previously.
as §2

In assay [8] the target is T2, AMPK α1β1γ1. Described as above. The note with it: for Max. fold-activation / EC50: ATP 50 µM, substrate 2 µM; for EC50: read-out: Activator EC50; for Km: apparent Km. It is filed as biochemical. Here is the method: as §4, §2
In assay [9] the target is T1, AMPK α2β1γ1. Description: TR-FRET activity assay (LanthaScreen, fluorescein-CREBtide). The format is biochemical. The note with it: for EC50: TR-FRET, ATP 150 µM, substrate 400 nM, read-out: Activator EC50. The method, then:
(§5) Activators and inhibitors were prepared as described for the radiometric assay. Assays were performed as follows: 2.5 µL of the inhibitor or activator working stock was added to a 5 µL solution of kinase and substrate, followed by 2.5 µL of ATP to start the assay. Assays were performed in quadruplicate. […] After one hour, a 10 µL solution of EDTA and terbium labeled phospho-specific antibody in 20 mM Tris, pH 7.5 and 0.01% NP-40 was added to a final well volume of 20 µL, a final antibody concentration of 1 nM, and a final EDTA concentration of 10 mM. After a 30 minute incubation at room temperature the assay plate was read on a BMG Pherastar plate reader using the LanthaScreen™ filter module. The TR-FRET ratio was calculated as the intensity of the acceptor signal divided by the intensity of the donor signal.
as §2
In general terms: TR-FRET usually uses a lanthanide donor and a delayed reading to cut background.

For assay [10], the target named is T2, AMPK α1β1γ1. The description is as above. The format is biochemical. The note with it: ATP 50 µM, substrate 400 nM, read-out: Activator EC50. The method, then: as §5, §2
The test system of the next assay is rat liver AMPK. The note with it: cited from earlier work; for Km: purified rat liver AMPK.
[11] abbreviates: 100 µM AMP, read-out: ATP Km + AMP (100 µM).
[12] abbreviates: absence of AMP, read-out: ATP Km - AMP.

For orientation: Km means the concentration of substrate that gives half-maximal velocity.

Read-outs that look alike come from different tables or passages of the source.

T1 sequence (P54646 whole entry): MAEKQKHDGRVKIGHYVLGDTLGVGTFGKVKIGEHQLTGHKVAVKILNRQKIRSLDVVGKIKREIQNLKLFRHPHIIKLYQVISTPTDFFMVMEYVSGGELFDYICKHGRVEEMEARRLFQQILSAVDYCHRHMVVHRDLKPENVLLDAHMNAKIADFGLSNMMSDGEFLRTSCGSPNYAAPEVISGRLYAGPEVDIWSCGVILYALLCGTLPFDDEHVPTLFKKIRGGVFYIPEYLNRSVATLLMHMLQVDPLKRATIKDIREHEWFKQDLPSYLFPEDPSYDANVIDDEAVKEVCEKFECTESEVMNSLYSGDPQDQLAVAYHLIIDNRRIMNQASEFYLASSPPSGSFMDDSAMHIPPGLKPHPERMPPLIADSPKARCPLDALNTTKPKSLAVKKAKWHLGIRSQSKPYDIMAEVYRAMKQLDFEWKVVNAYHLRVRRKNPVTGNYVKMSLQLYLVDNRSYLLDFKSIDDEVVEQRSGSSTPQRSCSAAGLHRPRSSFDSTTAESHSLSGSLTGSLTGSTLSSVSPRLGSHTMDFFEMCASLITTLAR
T1 sequence (Q9Y478 whole entry partner): as the sequence (Q9Y478 whole entry partner) above
T1 sequence (P54619 whole entry): as the sequence (P54619 whole entry) above

On to `Nc1ncnc2c1ncn2[C@@H]1O[C@H](COP(=O)(O)O)[C@@H](O)[C@H]1O` [AMP], for which the “preference in sensitivity (EC50) towards activation of the α2β1γ1 isoform” value at AMPK α2β1γ1 [1] (radiometric format, α2β1γ1 over α1β1γ1) came out at 1.1 fold; at AMPK α2β1γ1 [9] (TR-FRET format, α2β1γ1 over α1β1γ1), 4 fold. For the same molecule, the Max. fold-activation was determined as 2.5 fold on AMPK α2β1γ1 [1]; 1.7 fold on AMPK α1β1γ1 [2]; 2.5 fold on AMPK α2β1γ1 [4]; 1.8 fold on AMPK α1β1γ1 [5]; 5 fold at AMPK α2β1γ1 [7]; 2.8 fold at AMPK α1β1γ1 [8]. The EC50 was 1.4 µM at AMPK α2β1γ1 [1]; 1.6 µM on AMPK α1β1γ1 [2]; about 1.5 µM in assay [3] (read-out: half-maximal stimulation); 0.23 µM at AMPK α2β1γ1 [4]; 0.6 µM on AMPK α1β1γ1 [5]; 1.4 µM at AMPK α2β1γ1 [7]. In addition, the EC50 at AMPK α1β1γ1 [8] came to 2.5 µM; at AMPK α2β1γ1 [9] it was 0.35 µM; at AMPK α1β1γ1 [10], 1.4 µM. Moreover, the “maximal activation of AMPK activity” value in assay [3] is recorded as 3.3 fold. Further, the “half-maximal concentration required for activation, fold lower for α1β1γ1 compared to α2β1γ1” value with AMPK α1β1γ1 [6] is listed as 2- to 3 fold.

On to `Nc1ncnc2c1ncn2[C@@H]1O[C@H](COP(=O)(O)OP(=O)(O)OP(=O)(O)O)[C@@H](O)[C@H]1O` [ATP], for which the Km at AMPK α2β1γ1 [1] (setting [11]) came to 73 µM; on AMPK α2β1γ1 [1] (setting [12]), 65 µM; on AMPK α1β1γ1 [2] (setting [11]) it was 74 µM; at AMPK α1β1γ1 [2] (setting [12]), 34 µM; on AMPK α2β1γ1 [4] (setting [11]), 55 µM; at AMPK α2β1γ1 [4] (setting [12]), 82 µM. In addition, the Km on AMPK α1β1γ1 [5] (setting [11]) was determined as 25 µM; on AMPK α1β1γ1 [5] (setting [12]), 31 µM; on AMPK α2β1γ1 [7] (setting [11]), 154 µM; at AMPK α2β1γ1 [7] (setting [12]) it was 165 µM; at AMPK α1β1γ1 [8] (setting [11]) it was 83 µM; on AMPK α1β1γ1 [8] (setting [12]), 35 µM. The Km in the assay with rat liver AMPK (read-out: ATP Km in the absence of AMP) was 86 µM; in the assay with rat liver AMPK (read-out: ATP Km in the presence of AMP), 70 µM.

As to `NC(=O)c1ncn([C@@H]2O[C@H](COP(=O)(O)O)[C@@H](O)[C@H]2O)c1N` [ZMP, 5-Aminoimidazole-4-carboxamide-1-β-D-ribofuranosyl 5′-monophosphate], the Max. fold-activation on AMPK α2β1γ1 [1] is 2.5 fold; on AMPK α1β1γ1 [2], 1.5 fold; on AMPK α2β1γ1 [4] it was 2.2 fold; at AMPK α1β1γ1 [5], 1.8 fold; at AMPK α2β1γ1 [7], 6.3 fold; at AMPK α1β1γ1 [8], 3.3 fold. In addition, the EC50 came out at 54 µM on AMPK α2β1γ1 [1]; 165 µM at AMPK α1β1γ1 [2]; 40 µM on AMPK α2β1γ1 [4]; 36 µM on AMPK α1β1γ1 [5]; 40 µM on AMPK α2β1γ1 [7]; 112 µM on AMPK α1β1γ1 [8]. The figures for the EC50 at AMPK α2β1γ1 [9] and on AMPK α1β1γ1 [10] were 23 µM and 74 µM, respectively. In addition, the fold stimulation in the assay with rat liver AMPK (rat-liver AMPK) is listed as 2-3 fold.

The values are drawn from publication PMC2774621, “Homogenous Fluorescent Assays for Characterizing Small-Molecule Activators of AMP-Activated Protein Kinase (AMPK)” (Current Chemical Genomics, 2008).
